Values quoted from earlier work as cited in US11013708B2, “Prevention of psychotic disorders and/or treatment of psychotic symptoms” (Orygen Youth Health Research Centre, priority 2008, dated 2021).

Experiments:
[1] = test system: first-episode psychosis patients; conditions: in vivo 1H-MRS
ultra-high-risk groups = conditions: risperidone and cognitive therapy for 6 months vs supportive counselling

Compound	glutathione in temporal lobes [1]	efficacy of preventive intervention vs comparator (ultra-high-risk groups)
CC/C=C\C/C=C\C/C=C\C/C=C\C/C=C\CCCC(=O)O [EPA, all cis (or all z) 5,8, 11, 14, 17-eicosapentanoic acid]	can increase glutathione	
Cc1nc2n(c(=O)c1CCN1CCC(c3noc4cc(F)ccc34)CC1)CCCC2 [risperidone]		significantly more effective than supportive counselling at end of intervention, but not at 12-month follow-up
